# From paper PMC6934184, “Selective DNA-PKcs inhibition extends the therapeutic index of localized radiotherapy and chemotherapy” (The Journal of Clinical Investigation, 2019)
# Molecular target: T1, AURKA (Aurora A) (Homo sapiens, UniProt O14965)
# T1 construct: purchased Thermo Fisher Scientific (Life Technologies) SelectScreen
# Test: SelectScreen Z'LYTE
# Assay type: biochemical
# In short: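 Compound tested in SelectScreen activity assays, Z'LYTE for CSF1R, CDK1/cyclin B and MAP2K6 and Adapta for CAMK1. ATP for CAMK1 was listed as 10, and Km app was used for CSF1R. Results are expressed in percent.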
# T1 sequence (O14965 whole entry): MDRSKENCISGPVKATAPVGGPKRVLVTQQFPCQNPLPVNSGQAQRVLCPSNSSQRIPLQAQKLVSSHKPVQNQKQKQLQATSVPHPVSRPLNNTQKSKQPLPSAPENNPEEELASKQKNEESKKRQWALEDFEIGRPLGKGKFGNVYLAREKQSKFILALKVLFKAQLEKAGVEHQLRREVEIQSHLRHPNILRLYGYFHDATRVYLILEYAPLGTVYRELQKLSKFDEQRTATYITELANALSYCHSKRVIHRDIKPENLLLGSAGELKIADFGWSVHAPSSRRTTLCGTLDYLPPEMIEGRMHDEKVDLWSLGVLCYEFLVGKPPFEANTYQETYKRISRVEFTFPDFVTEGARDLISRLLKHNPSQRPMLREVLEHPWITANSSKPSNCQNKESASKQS
structure (smiles),measurement,value
CN(C(=O)CN1CCOCC1)c1ccc2sc3c(-c4cccc5c(=O)cc(N6CC7CCC(C6)O7)oc45)cccc3c2c1 [NU5455],inhibition at 1 µM,-0.1%
